Data published in article PMC3648344 (BMC Structural Biology, 2013).

Biological target: T1, ecMnmC (Escherichia coli, UniProt P77182)
T1 construct: gene mnmC; full-length bifunctional MnmC, 668 residues, ~75 kDa monomer; N-terminal His6 tag removed with thrombin; pET30a-LIC, expressed in E. coli BL21(DE3)
T1 sequence (P77182 1-668): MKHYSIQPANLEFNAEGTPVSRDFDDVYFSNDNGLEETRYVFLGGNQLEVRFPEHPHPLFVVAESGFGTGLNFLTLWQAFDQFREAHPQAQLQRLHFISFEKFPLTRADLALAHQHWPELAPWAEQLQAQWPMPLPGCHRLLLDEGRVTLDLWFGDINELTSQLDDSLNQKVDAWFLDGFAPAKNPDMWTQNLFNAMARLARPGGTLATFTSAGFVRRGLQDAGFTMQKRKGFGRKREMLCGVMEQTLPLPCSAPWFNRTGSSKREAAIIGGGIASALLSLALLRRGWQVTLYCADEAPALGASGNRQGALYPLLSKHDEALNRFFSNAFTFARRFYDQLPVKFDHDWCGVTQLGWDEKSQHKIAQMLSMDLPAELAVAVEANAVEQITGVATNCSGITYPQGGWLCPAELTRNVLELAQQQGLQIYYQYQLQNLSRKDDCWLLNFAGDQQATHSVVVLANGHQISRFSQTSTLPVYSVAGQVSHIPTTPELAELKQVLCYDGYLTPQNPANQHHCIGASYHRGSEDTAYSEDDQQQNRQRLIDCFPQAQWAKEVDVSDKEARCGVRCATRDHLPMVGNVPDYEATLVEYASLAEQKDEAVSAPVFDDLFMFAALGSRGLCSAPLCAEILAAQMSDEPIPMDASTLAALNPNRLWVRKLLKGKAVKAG
Assay: X-ray crystal structure, […] Å
Assay type: binding

Structure (SMILES)	X-ray crystal structure, 2.55 Å (crystals soaked with 5 mM SAM, FAD bound, MnmC2 domain site)	X-ray crystal structure, 2.55 Å (co-purified FAD, none added, SAM bound, MnmC1 domain site)
C[S+](CC[C@H](N)C(=O)O)C[C@H]1O[C@@H](n2cnc3c(N)ncnc32)[C@H](O)[C@@H]1O (some centres unmarked) [SAM]	Our structures show that ecMnmC and ypMnmC bind SAM in an almost identical manner	–
Cc1cc2nc3c(=O)[nH]c(=O)nc-3n(C[C@H](O)[C@H](O)[C@H](O)COP(=O)(O)OP(=O)(O)OC[C@H]3O[C@@H](n4cnc5c(N)ncnc54)[C@H](O)[C@@H]3O)c2cc1C [FAD]	–	All three MnmC structures unambiguously exhibited bound FAD (Figure 4A)
